Source: patent US10544149B2, “Bicyclic alkyne derivatives and uses thereof” (Agency for Science, Technology and Research, priority 2013, dated 2020)
Where a name gives a salt, the structure may show the parent alone.

Assays:
MNK1 = MNK1 (Homo sapiens, UniProt Q9BUB5); assay: MNK1 enzymatic assay; assay type: biochemical
MNK2 = MNK2 (Homo sapiens, UniProt Q9HBH9); assay: MNK2 enzymatic assay; assay type: biochemical
[1] = system: eIF4e phosphorylation in Hela cell line; assay: eIF4e phosphorylation inhibition in Hela cell line; assay type: cell-based; conditions: Homo sapiens, cellular
[2] = system: TNF production by macrophage; conditions: TLR agonist stimulation, dose dependant; cited from earlier work

Sequence of MNK2 (Q9HBH9 whole entry): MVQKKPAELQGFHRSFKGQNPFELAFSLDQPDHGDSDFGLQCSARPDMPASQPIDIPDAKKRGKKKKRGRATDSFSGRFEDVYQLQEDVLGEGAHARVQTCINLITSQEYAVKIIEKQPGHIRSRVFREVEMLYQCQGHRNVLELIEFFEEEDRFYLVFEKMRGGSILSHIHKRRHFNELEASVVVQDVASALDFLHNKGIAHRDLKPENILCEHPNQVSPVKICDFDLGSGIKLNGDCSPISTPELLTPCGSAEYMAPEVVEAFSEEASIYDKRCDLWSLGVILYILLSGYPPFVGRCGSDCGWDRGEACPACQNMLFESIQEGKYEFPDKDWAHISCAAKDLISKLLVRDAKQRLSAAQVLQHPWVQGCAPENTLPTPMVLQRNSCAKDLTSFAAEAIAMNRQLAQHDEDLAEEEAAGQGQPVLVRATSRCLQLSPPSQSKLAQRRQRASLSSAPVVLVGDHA
Sequence of MNK1 (Q9BUB5 whole entry): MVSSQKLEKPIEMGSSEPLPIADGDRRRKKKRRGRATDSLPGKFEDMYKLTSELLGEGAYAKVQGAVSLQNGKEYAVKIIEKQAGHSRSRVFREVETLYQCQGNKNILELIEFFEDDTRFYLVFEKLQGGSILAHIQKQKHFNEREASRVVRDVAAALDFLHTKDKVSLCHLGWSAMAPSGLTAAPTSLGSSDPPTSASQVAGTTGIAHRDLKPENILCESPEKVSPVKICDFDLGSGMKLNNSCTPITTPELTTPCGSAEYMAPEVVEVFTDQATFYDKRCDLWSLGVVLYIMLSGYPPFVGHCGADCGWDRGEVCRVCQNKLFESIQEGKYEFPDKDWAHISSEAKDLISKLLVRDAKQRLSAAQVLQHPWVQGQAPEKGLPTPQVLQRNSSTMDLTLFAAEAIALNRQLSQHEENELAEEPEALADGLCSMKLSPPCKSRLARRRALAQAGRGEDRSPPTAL

melting point	IC50 (MNK1)	IC50 (MNK2)	IC50 [1]	SMILES	production / release of TNF [2]
193.7 to 194.8 °C	–	–	–	Nc1cc(C#Cc2cnc3ccc(-c4ccc(C(=O)N5CCOCC5)c(Cl)c4)nn23)ccn1 [Example 82, (4-(3-((2-aminopyridin-4-yl)ethynyl)imidazo[1,2-b]pyridazin-6-yl)-2-chlorophenyl)(morpholino)methanone]	–
78.2 to 79.4 °C	–	–	–	Nc1cc(C#Cc2cnc3ccc(-c4ccc(C(=O)N5CCOCC5)cc4F)nn23)ccn1 (as salt: salt) [Example 122, (4-(3-((2-aminopyridin-4-yl)ethynyl)imidazo[1,2-b]pyridazin-6-yl)-3-fluorophenyl)(morpholino)methanone formate salt]	–
207.2 to 208.2 °C	–	–	–	CN1CCN(C(=O)c2ccc(-c3ccc4ncc(C#Cc5ccnc6[nH]ccc56)n4n3)cc2)CC1=O [Example 85, 4-(4-(3-((1H-pyrrolo[2,3-b]pyridin-4-yl)ethynyl)imidazo[1,2-b]pyridazin-6-yl)benzoyl)-1-methylpiperazin-2-one]	–
258.2 to 259.5 °C	–	–	–	CC(=O)Nc1cc(C#Cc2cnc3ccc(-c4ccc(C(=O)N5CCN(C)C(=O)C5)cc4)nn23)ccn1 [Example 84, N-(4-((6-(4-(4-methyl-3-oxopiperazine-1-carbonyl)phenyl)imidazo[1,2-b]pyridazin-3-yl)ethynyl)pyridin-2-yl)acetamide]	–
258.5 to 258.9 °C	–	–	–	Nc1cc(C#Cc2cnc3ccc(-c4ccc(C(=O)N5CCOCC5)c(C(F)(F)F)c4)nn23)ccn1 [Example 83, (4-(3-((2-aminopyridin-4-yl)ethynyl)imidazo[1,2-b]pyridazin-6-yl)-2-(trifluoromethyl)phenyl) (morpholino)methanone]	–
120 to 122 °C	–	–	–	CN1CCN(C(=O)c2ccc(-c3ccc4ncc(C#Cc5ccnc(N)c5)n4n3)cc2)CC1 [Example 76, (4-(3-((2-aminopyridin-4-yl)ethynyl)imidazo[1,2-b]pyridazin-6-yl)phenyl)(4-methylpiperazin-1-yl)methanone]	–
216.8 to 217.9 °C	–	–	–	CC(=O)Nc1cc(C#Cc2cnc3ccc(-c4ccc(C(=O)N5CCN(C)CC5)cc4)nn23)ccn1 [Example 87, N-(4-((6-(4-(4-methylpiperazine-1-carbonyl)phenyl)imidazo[1,2-b]pyridazin-3-yl)ethynyl)pyridin-2-yl)acetamide]	–
192.8 to 193.8 °C	–	–	–	O=C(c1ccc(-c2cn3c(C#Cc4ccnc5[nH]ncc45)cnc3cn2)cc1)N1CCOCC1 [Example 90, (4-(3-((1H-pyrazolo[3,4-b]pyridin-4-yl)ethynyl)imidazo[1,2-a]pyrazin-6-yl)phenyl) (morpholino)methanone]	–
143.5 to 144.2 °C	–	–	–	Nc1cc(C#Cc2cnc3cnc(-c4ccc(C(=O)N5CCOCC5)cc4)cn23)ccn1 [Example 88, (4-(3-((2-aminopyridin-4-yl)ethynyl)imidazo[1,2-a]pyrazin-6-yl)phenyl)(morpholino)methanone]	–
165 to 166 °C	–	–	–	O=C(c1ccc(-c2ccc3ncc(C#Cc4ccncc4)n3c2)cc1)N1CCOCC1 [Example 94, morpholino(4-(3-(pyridin-4-ylethynyl)imidazo[1,2-a]pyridin-6-yl)phenyl)methanone]	–
245 to 254 °C	< 0.5 µM	< 0.5 µM	< 5 µM	Nc1ncc(C#Cc2cnc3ccc(-c4ccc(C(=O)N5CCOCC5)cc4)nn23)s1 [Example 121, (4-(3-((2-aminothiazol-5-yl)ethynyl)imidazo[1,2-b]pyridazin-6-yl)phenyl) (morpholino)methanone]	–
133 to 138 °C	–	–	–	Nc1cc(C#Cc2cnc3ccc(-c4ccc(C(=O)N5CCOCC5)cc4)cn23)ccn1 [Example 96, (4-(3-((2-aminopyridin-4-yl)ethynyl)imidazo[1,2-a]pyridin-6-yl)phenyl)(morpholino)methanone]	–
–	< 0.5 µM	< 0.5 µM	< 5 µM	O=C(c1ccc(-c2ccc3ncc(C#Cc4ccnc(Nc5ccccc5)c4)n3n2)cc1)N1CCOCC1 [Example 051, morpholino(4-(3-((2-(phenylamino)pyridin-4-yl)ethynyl)imidazo[1,2-b]pyridazin-6-yl)phenyl)methanone]	–
–	< 0.5 µM	< 0.5 µM	< 5 µM	CS(=O)(=O)Nc1cccc(C#Cc2cnc3ccc(-c4ccc(C(=O)N5CCOCC5)cc4)nn23)c1 [Example 011, N-(3-((6-(4-(morpholine-4-carbonyl)phenyl)imidazo[1,2-b]pyridazin-3-yl)ethynyl)phenyl)methane sulfonamide]	–
193.6 to 194.6 °C	–	–	–	CN1CCN(C(=O)c2ccc(-c3ccc4ncc(C#Cc5ccnc(N)c5)n4n3)cc2)CC1=O [Example 77, 4-(4-(3-((2-aminopyridin-4-yl)ethynyl)imidazo[1,2-b]pyridazin-6-yl)benzoyl)-1-methylpiperazin-2-one]	–

Further lines, the compound ahead of its results:

SMILES	melting point	IC50 (MNK1)	IC50 (MNK2)	IC50 [1]	production / release of TNF [2]
O=C(c1ccc(-c2ccc3ncc(C#Cc4ccncc4)n3c2)cc1)N1CCNCC1 [Example 109, piperazin-1-yl(4-(3-(pyridin-4-ylethynyl)imidazo[1,2-a]pyridin-6-yl)phenyl)methanone]	125 to 130 °C	< 0.5 µM	< 0.5 µM	< 5 µM	–
Nc1cc(C#Cc2cnc3cnc(-c4ccc(C(=O)N5CCOCC5)c(Cl)c4)cn23)ccn1 [Example 93, (4-(3-((2-aminopyridin-4-yl)ethynyl)imidazo[1,2-a]pyrazin-6-yl)-2-chlorophenyl) (morpholino)methanone]	119.8 to 121.1 °C	–	–	–	–
Cc1cnccc1C#Cc1cnn2ccc(-c3ccc(C(=O)N4CCOCC4)cc3)nc12 [Example 116, (4-(3-((3-methylpyridin-4-yl)ethynyl)pyrazolo[1,5-a]pyrimidin-5-yl)phenyl)(morpholino)methanone]	233 to 236 °C	< 0.5 µM	< 0.5 µM	< 5 µM	–
O=C(c1ccc(-c2ccc3ncc(C#Cc4ccnc5[nH]ccc45)n3c2)cc1)N1CCNCC1 [Example 110, (4-(3-((1H-pyrrolo[2,3-b]pyridin-4-yl)ethynyl)imidazo[1,2-a]pyridin-6-yl)phenyl)(piperazin-1-yl)methanone]	242 to 245 °C	< 0.5 µM	< 0.5 µM	< 5 µM	–
Nc1ncnc2n[nH]c(Nc3ccc(F)cc3)c12 [CGP57380]	–	–	–	–	inhibits
Nc1cc(C#Cc2cnn3ccc(-c4ccc(C(=O)N5CCOCC5)cc4F)nc23)ccn1 (as salt: salt) [Example 123, (4-(3-((2-aminopyridin-4-yl)ethynyl)pyrazolo[1,5-a]pyrimidin-5-yl)-3-fluorophenyl)(morpholino) methanone formic acid salt]	57.6 to 58.9 °C	–	–	–	–
O=C(c1ccc(-c2ccn3ncc(C#Cc4ccncc4)c3n2)cc1)N1CCOCC1 [Example 114, morpholino(4-(3-(pyridin-4-ylethynyl)pyrazolo[1,5-a]pyrimidin-5-yl)phenyl)methanone]	206 to 209 °C	< 0.5 µM	< 0.5 µM	< 5 µM	–
Nc1cc(C#Cc2cnn3ccc(-c4ccc(C(=O)N5CCOCC5)cc4)nc23)ccn1 [Example 117, (4-(3-((2-aminopyridin-4-yl)ethynyl)pyrazolo[1,5-a]pyrimidin-5 yl)phenyl)(morpholino)methanone]	129.8 to 130.6 °C	–	–	–	–
Cc1cnccc1C#Cc1cnc2ccc(-c3ccc(C(=O)N4CCOCC4)cc3)cn12 [Example 95, (4-(3-((3-methylpyridin-4-yl)ethynyl)imidazo[1,2-a]pyridin-6-yl)phenyl) (morpholino)methanone]	99 to 104 °C	–	–	–	–
O=C(c1ccc(-c2ccn3ncc(C#Cc4ccncc4)c3n2)cc1)N1CCNCC1 [Example 115, piperazin-1-yl(4-(3-(pyridin-4-ylethynyl)pyrazolo[1,5-a]pyrimidin-5-yl)phenyl)methanone]	120 to 136 °C	< 0.5 µM	< 0.5 µM	< 5 µM	–
